Laboratory results taken from article PMC8719067 (Haematologica, 2021).

Experiments:
[1] = test system: B-cell lines or primary CLL cells; conditions: cited from earlier work
[2] = test system: chronic lymphocytic leukemia; conditions: patients with CLL, median of 3.4 years of follow-up; cited from earlier work
[3] = test system: MEC-1 cells with either wild-type or mutant BTK; assay: reverse-phase protein array; conditions: RPPA
[4] = test system: MEC-1 cells; assay: cell cycle profile; format: cell-based; conditions: MEC-1, 24 hours
[5] = test system: MEC-1 cells; assay: cell death; format: cell-based; conditions: MEC-1, 1, 24 hours
[6] = test system: MEC-1 cells overexpressing BTKWT; assay: reverse-phase protein array; conditions: RPPA; for decrease in phospho-ERK: BTKWT cells
[7] = test system: BCR pathway in primary CLL cells; assay: immunoblot of BCR pathway proteins in primary CLL cells; format: cell-based, human; conditions: BTKWT and BTKT474F (gate-keeper mutation)
[8] = test system: PLCg2 phosphorylation in Ramos Burkitt lymphoma cells; assay: phospho-PLCg2 inhibition in the Ramos cell line; format: cell-based; conditions: Homo sapiens, read-out: IC50 of inhibition of PLCg2 phosphorylation
[9] = test system: B-cell malignancies; conditions: phase 1b clinical trial; cited from earlier work

Row | Compound | cell death induced in vitro [1] | cumulative incidence of progression [2] [%] | decrease in PD1 levels (ibrutinib vs vecabrutinib) [3] | cell cycle profiles [4] | cell death [5] | decrease in phospho-ERK [6] [log] | S727 phosphorylation on STAT3 ([3]; WT and mutant cell lines) | Y705 phosphorylation on STAT3 ([3]; WT and mutant cell lines) | phospho-S6K ([3]; all three cell types, compared to ibrutinib) | cleaved caspase 7 ([3]; all transduced cell lines) | BCR pathway (phosphorylation of BTK, ERK, and S6) signaling [7] | IC50 [8] [nM] | tolerability [9] | responses for all proteins compared to those to ibrutinib ([6]; WT cells)
1 | CC#CC(=O)N1CCC[C@H]1c1nc(-c2ccc(C(=O)Nc3ccccn3)cc2)c2c(N)nccn12 [acalabrutinib] | limited |  |  |  |  |  |  |  |  |  |  |  |  | 
2 | C=CC(=O)N1CCC[C@@H](n2nc(-c3ccc(Oc4ccccc4)cc3)c3c(N)ncnc32)C1 [ibrutinib, reference compound] | limited | 19 | larger decrease | did not alter | 15-20% | 2 |  |  |  |  |  |  |  | 
3 | NC(=O)[C@H]1CCN(c2ncnc(N)c2F)C[C@@H]1N1CCC[C@@H](Nc2cc(Cl)cc(C(F)(F)F)c2)C1=O [vecabrutinib] |  |  |  | did not alter | 15-20% | 2 | decreased | decreased | profoundly decreased | increased | inhibited | 13 ± 6 | well-tolerated | deeper or similar responses
